Assay results as given in patent publication US20080131867A1, “Method for Determining the Effectiveness of a Treatment for Preeclampsia” (priority 2006, published 2008).

Tests used:
[1] = system: women with elevated risk to develop preeclampsia; assay: Delivery outcome of high-risk women treated with low dose aspirin; type: in vivo, human; conditions: for Outcome: Normal (number of women) / Outcome: Preeclampsia (number of women): 50 treated
Procedure: (§1) If in the period specified above a medication is used, it is anticipated that it will bring a woman's PP13 level to the 2nd or 3rd or even the 4th quartile, corresponding to their reduced likelihood of developing preeclampsia. In the example described in Table 2, women with elevated risk to develop preeclampsia were orally treated from GW8 with a dose of […] aspirin (“low dose aspirin”) for either 2 or 3 weeks. […] Accordingly, women who were treated were anticipated to have lower risk to develop preeclampsia and their outcome should also be improved.
(§2) In the study shown in Table 2, of 150 women tested as being at high risk in the 8th week, 50 were not treated, 50 were treated with aspirin for two weeks and 50 were treated for 3 weeks. […] The calculation of their anticipated risk was reduced accordingly.

PP13 [2] = assay: Allocation of high-risk women to serum PP13 quartiles after low dose aspirin; type: in vivo, human; conditions: for Frequency of 1st quartile cases / Frequency of 2nd quartile cases / Frequency of 3rd quartile cases: high-risk women
Procedure: (§3) Unless otherwise indicated, in all experiments, PP13 was measured (blinded to pregnancy outcome) in maternal venous serum by solid-phase sandwich ELISA assay. The PP13 level was calibrated according to standard curves prepared from calibrated standards of recombinant PP13. Concentrations are given in pg PP13/ml serum.
First trimester PP13 could serve as a measure to assess the risk for a later development of preeclampsia. According to FIG. 2 and Table 1, in the first trimester, the majority of the women who will go on to develop preeclampsia have very low levels of PP13 while most women who will have a normal outcome have higher PP13 values. In one study summarized in Table 2 and FIG. 3, the PP13 level was measured at 8 weeks of gestation from 50 cases who went on to develop preeclampsia and in 290 cases with normal outcome. The method of multiples of the gestation-specific median (MoM) was used, and at MoM cutoffs of 0.45, the false positive rate was 10% and the sensitivity 87%. This means that 43 out of 50 preeclampsia cases and 29 out of 290 normal were identified as being at high risk. Thus, while the risk for PP13 in the population is 5%, in the group with PP13 below 0.45, the frequency of preeclampsia was 59% (more than 10 times above the frequency in the population not tested).
Sensitivity and specificity were calculated from the receiver operating characteristic (ROC) analysis based on the indicated MoM cutoffs of 0.45. Sensitivity value is provided in Table 2 in percentile for 10% false positive rate. The odds ratio for developing the pathology was determined by two methods of calculations:
1) modeling, that calculate the Odds ratio as already described above after taking into consideration the prevalence of the pathology in the population, and
2) the quartile assessment procedure, of calculating of the odds ratio for the development of preeclampsia based on the comparison of PP13 in the lowest quartile (25%) versus PP13 in the third quartile (75th percent).
as §1, §2
Sensitivity in percentile values are shown when the specificity was fixed to 90% (95% CI: 86%-93%), corresponding to having […] cases of false positives (10%).

[3] = system: PP13 release from placenta explants; assay: Therapeutic effectiveness on PP13 release from standardized placenta explants in presence of patient serum (indirect method); type: cell-based, human
Source text: Scenario 1: Simple Direct Tailoring with a Diversity of Drugs. • We have standardized culture conditions for first trimester explants or explants obtained after delivery. • Explants could be the ones made of patients after delivery or those obtained by Chorionic villi sampling (CVS) at gestational weeks 10-12 or other placenta biopsies as the case may be. • Standardization means defined median viability index, protein content in the explant, total protein released to the medium, PP13 content in the explant and PP13 release from the explant, among others. • Drug effect in-vitro is the effect of drug applied to the culture medium on PP13 release from the placenta explant after 24 hr to 7 days. The effect is compared to the baseline release as measured without the drug. • The Therapeutic Index is thus the in-vitro relative effectiveness of the drug when applied to explants as measured by the difference between PP13 release with (PP13D1) and without (PP130) the drug by the equation: (PP130−PP13D1)/PP130, after normalizing to viability, protein content etc as described above, given all other parameters are the same. • It is important to note that in the first trimester (gestational weeks 6-13) PP13 in diseased patient is lower than Normal. Thus the therapeutic index is to return PP13 release is calculated as drugs that elevate PP13 release. In the third trimester (gestational week 26 and above), PP13 is higher in preeclamptic patients than normal. Thus the therapeutic index is decreasing PP13 release back to Normal. • According to the in-vitro therapeutic index one drug or a drug combinations are selected for the in-vivo interventional medication treatment. • Follow up: after selecting the drug to be administrating to the patient, bi-weekly blood testing follow up is recommended to be carried out by measuring the PP13 in the blood and calculating
If so, drugs that appears beneficial to standardized culture explants wouldn't work when applied together with the patient samples. It can be seen that the serum from the patient at high risk for preeclampsia caused serious inhibition of many of the types of treatment.

[4] = system: PP13 release from placental (villous) explants; assay: PP13 release from placental (villous) explants cultured 48 hours (FIGS. 7-11); type: cell-based, human
Procedure: The tissue of each woman was divided into 16 different portions, exposed each to diversified conditions and cultured for 48 hours;
The following results were obtained with placental (villous) explants from 16 cases of normal women, 12 cases of preeclampsia and 3 cases of HELLP women, which were cultured in DMEM/F12 for 48 hours at 6% or 20% O2. Conditioned media was collected after culture and tested for total protein and PP13. PP13 release was related to total protein.
The explants tested in Example 6 were retested using, in addition to the two oxygen levels, two different levels of magnesium, 0.7 mM and 1.4 mM.
Note that the latter combination also affected the HELLP cases. […]

[5] = system: PP13 release from cultured chorionic villi; assay: PP13 release from cultured chorionic villi of GW 9-10 (48 hr culture, ELISA); type: cell-based, human; conditions: for PP13 (pg/ml) release: 48 hr
Procedure: From left to right, the explants are shown at transfer (6 hours) and after 36 hr in culture. Cultures are grown in conditioned medium. After 48 hr in culture, the supernatant is collected, centrifuged and the […] is diluted in PBS and checked for the concentration of PP13 by sandwich ELISA using PP13 standards to calibrate the reaction OD to PP13 concentration. The PP13 level may be normalized to the gestational age according to the linear regression of the total points and to the protein level of the explant; […] The placenta cells/explants were cultured for 48 hr and PP13 was measured in the culture medium by ELISA (in the same manner as described in FIG. 1).

PP13 [6] = assay: Serum PP13 values and 1st-to-2nd trimester slope in women treated with vitamin E (FIG. 4); type: in vivo, human
Procedure: as §3
The slope may be calculated as follows:
Slope=(PP13(2nd trimester)−PP13(1st trimester)/GW(2nd trimester)−GW(1st trimester)).
Normal vs. preeclampsia slopes are shown in FIG. 4, and the cutoff between normal and preeclampsia to reach 80% sensitivity is a slope of 3.5. The slope helps to further verify the risk for preeclampsia.
If after establishing the risk by two tests the women at high risk are treated daily by administering the anti-oxidant vitamin E, the treated women have a lower slope (FIG. 4). From the relatively large confidence level one can see that not all women were affected in the same way. Thus, the approach can be further used to enable one to see how the slope can be reduced by medications and its correlation to the reduced risk to develop the pathology, thereby considering discontinuing the treatment, elevating the drug level or selecting a different treatment for individual patients. The combined and contingent approaches indicate that multiple testing is necessary only for women at risk whereas low risk patients may avoid repeated testing.

[7] = applied with serum from a Normal Patient
[8] = applied with serum from a Patient at high risk for preeclampsia

## CC(=O)Oc1ccccc1C(=O)O [Aspirin, salicylic acid (aspirin)]
[1]; 14 days aspirin
  Outcome: Normal (number of women): 26 Normal
  Outcome: Preeclampsia (number of women): 24 Preeclampsia
[1]; 21 days aspirin
  Outcome: Normal (number of women): 33 Normal
  Outcome: Preeclampsia (number of women): 18 Preeclampsia
[1]; aspirin for 2 or 3 weeks
  Number of preeclampsia cases, treated vs. untreated groups: significantly lower
PP13 [2]; 14 days aspirin
  Odds ratio (by modeling) for developing preeclampsia: 5.9
  Odds ratio (by quartiles) for developing preeclampsia: 5.6
  Frequency of 1st quartile cases: 20/50
  Frequency of 2nd quartile cases: 24/45
  Frequency of 3rd quartile cases: 5/50
PP13 [2]; 21 days aspirin
  Odds ratio (by modeling) for developing preeclampsia: 3.3
  Odds ratio (by quartiles) for developing preeclampsia: 3.2
  Frequency of 1st quartile cases: 14/50
  Frequency of 2nd quartile cases: 30/50
  Frequency of 3rd quartile cases: 5/50
PP13 [2]; aspirin for 2 or 3 weeks
  Numbers of patients in the 2nd and 3rd PP13 quartiles compared to the first quartile: elevated significantly
[3]; [7]
  Therapeutic Effectiveness on PP13 release from placenta explants: 74%
[3]; [8]
  Therapeutic Effectiveness on PP13 release from placenta explants: 40%

## [Cl-].[Cl-].[Mg+2] [Magnesium, MgCl2]
[4]; HELLP explants, hyperoxia (20%), increase in Mg (1.4 mM)
  Effect on PP13 release: elevated release of PP13
[4]; HELLP explants, normoxia (6%), elevated Mg (1.4 mM)
  Effect on PP13 release: elevated release of PP13
[4]; explants from normal pregnant women, elevated oxygen (20%) and MgCl2 (1.4 mM)
  Effect on PP13 release: not affected
[4]; preeclamptic explants, magnesium 1.4 mM in 6% oxygen
  Effect on PP13 release: not in 6% oxygen
[4]; preeclamptic explants, magnesium 1.4 mM in 20% oxygen
  Effect on PP13 release: brought back to the normal level
[3]; [7]
  Therapeutic Effectiveness on PP13 release from placenta explants: 50%
[3]; [8]
  Therapeutic Effectiveness on PP13 release from placenta explants: 20%

## O=O [Oxygen, oxygen]
[4]; explants from HELLP cases, 20% vs 6% oxygen, 48 hours, listed as O2
  Effect on PP13 release: reduced by 20% O2 to below the normal level
[4]; explants from HELLP cases, 20% vs 6% oxygen, 48 hours, listed as hyperoxia
  Effect on PP13 release: almost complete halt in PP13 release
[4]; explants from normal women, 20% vs 6% oxygen, 48 hours
  Effect on PP13 release: no effect
[4]; explants from normal women, 20% vs 6% oxygen, 48 hours, listed as hyperoxia
  Effect on PP13 release: remained at the same level
[4]; explants from preeclampsia women, 20% vs 6% oxygen, 48 hours
  Effect on PP13 release: decreased significantly
[4]; explants from preeclampsia women, 20% vs 6% oxygen, 48 hours, listed as hyperoxia
  Effect on PP13 release: significantly less PP13 release
[5]; 3 high risk women, no vitamin C
  Increase of PP13 release under 20% oxygen compared to 6% oxygen: ~2 factor
[5]; Case 1, normal risk, 20% oxygen (hyperoxia), no vitamin C
  PP13 (pg/ml) release: 14,250 pg/ml
[5]; Case 2, normal risk, 20% oxygen (hyperoxia), no vitamin C
  PP13 (pg/ml) release: 15,500 pg/ml
[5]; Case 3, high-risk (preeclampsia), 20% oxygen (hyperoxia), no vitamin C
  PP13 (pg/ml) release: 5,000 pg/ml
[5]; Case 3, high-risk (preeclampsia), 20% oxygen (hyperoxia), no vitamin C, listed as oxygen
  PP13 (pg/ml) release: 5000 pg/mL
[5]; Case 4, high-risk (preeclampsia), 20% oxygen (hyperoxia), no vitamin C
  PP13 (pg/ml) release: 4,300 pg/ml
[5]; Case 5, high-risk (preeclampsia), 20% oxygen (hyperoxia), no vitamin C
  PP13 (pg/ml) release: 7,900 pg/ml

## O=C1O[C@H]([C@@H](O)CO)C(O)=C1O [Vitamin C, vitamin C]
[5]; 3 high risk women, 6% oxygen, 48 hours incubation
  Increase of PP13 release with vitamin C vs. without: 3-4 times
[5]; Case 1, normal risk, 6% oxygen, with vitamin C
  PP13 (pg/ml) release: 14,300 pg/ml
[5]; Case 1, normal risk, 20% oxygen, with vitamin C
  PP13 (pg/ml) release: 14990 pg/mL
[5]; Case 2, normal risk, 6% oxygen, with vitamin C
  PP13 (pg/ml) release: 15,390 pg/ml
[5]; Case 2, normal risk, 20% oxygen, with vitamin C
  PP13 (pg/ml) release: 15,300 pg/ml
[5]; Case 3, high-risk (preeclampsia), 6% oxygen, with vitamin C
  PP13 (pg/ml) release: 12,030 pg/ml
[5]; Case 3, high-risk (preeclampsia), 20% oxygen, with vitamin C
  PP13 (pg/ml) release: 5,100 pg/ml
[5]; Case 4, high-risk (preeclampsia), 6% oxygen, with vitamin C
  PP13 (pg/ml) release: 9,230 pg/ml
[5]; Case 4, high-risk (preeclampsia), 20% oxygen, with vitamin C
  PP13 (pg/ml) release: 4,421 pg/ml
[5]; Case 5, high-risk (preeclampsia), 6% oxygen, with vitamin C
  PP13 (pg/ml) release: 15760 pg/mL
[5]; Case 5, high-risk (preeclampsia), 6% oxygen, with vitamin C, listed as vitamin C
  PP13 (pg/ml) release: 15,790 pg/ml
[5]; Case 5, high-risk (preeclampsia), 20% oxygen, with vitamin C
  PP13 (pg/ml) release: 8,100 pg/ml
[5]; high risk women, 20% oxygen (hyperoxia)
  Additional effect of vitamin C on PP13 release under 20% oxygen: no additional effect

## aprotinin
[4]; HELLP explants, normoxia and high Mg (FIG. 11B)
  Effect on PP13 release: almost back to normal

## heparin
[4]; hyperoxia and normal Mg (FIG. 11C)
  Effect on PP13 release: almost back to normal
[3]; [7]
  Therapeutic Effectiveness on PP13 release from placenta explants: 56%
[3]; [8]
  Therapeutic Effectiveness on PP13 release from placenta explants: 20%

## vitamin E
PP13 [6]; 16-20 weeks, vitamin E
  Effect on PP13: no significant effect
PP13 [6]; cases of preeclampsia, 6-10 weeks, early application of vitamin E
  Effect on PP13 level/release: doubles PP13 release towards the normal level
PP13 [6]; normal patients, 6-10 weeks, vitamin E
  Effect on PP13 release: without affecting PP13 release
PP13 [6]; preeclamptic women, 24-28 weeks, vitamin E
  Effect on PP13 release: reduces PP13 release back to the normal level
PP13 [6]; women at high risk treated daily with vitamin E
  PP13 slope (1st-to-2nd trimester): lower slope
[3]; [7]
  Therapeutic Effectiveness on PP13 release from placenta explants: 30%
[3]; [8]
  Therapeutic Effectiveness on PP13 release from placenta explants: 0%
